Legend:
[1] = molecular target: T1, urease produced by Proteus mirabilis (Proteus mirabilis, UniProt P17086); assay: Urease inhibition effects - Proteus mirabilis urease, intact cell; type: cell-based; conditions: read-out: 50% Urease inhibition conc. I50
T1 construct: intact Proteus mirabilis cells and cell-free preparation
Method: (§1) Urease extracted from Jack beans and then purified and urease produced by Proteus mirabilis were used. The molar concentration of the test compound that inhibited 50% of the urease present was determined by the method of Kobashi et al, Biochim. Biophys. Acta, 227, 429-441 (1971), and the method of Okuda et al, Saishin Igaku (The Latest Medical Science) 21(3), 622-627 (1966).

[2] = Acute toxicity; type: in vivo, S.D. rats; conditions: peroral; for LD50: rat, in vivo, po, in 0.5% carboxymethylcellulose
Source text: Acute toxicities of test compounds were examined by the peroral administration of the test compounds, suspended in 0.5% carboxymethylcellulose, to male and female S.D. rats (8 weeks old).

[3] = molecular target: T2, Jack bean urease (Canavalia ensiformis, UniProt P07374); assay: Urease inhibition effects - Jack bean urease; type: biochemical, Jack beans; conditions: read-out: 50% Urease inhibition conc. I50
T2 construct: Urease extracted from Jack beans and then purified; from tissue; host or cells: Jack beans
Method: as §1

[4] = tested on: Proteus mirabilis; assay: Inhibition of the formation of vesical calculi in rats infected with Proteus mirabilis; type: in vivo, Female S.D. rats; conditions: peroral, five days from four days after inoculation, none: 34.5 ± 2.6 mg
Source text: Female S.D. rats weighing about 200 g were inoculated with Proteus mirabilis in their bladders to cause infection. Four days after the inoculation peroral administration of a test compound was begun and the administration was continued for five days. The calculi formed in the bladder in each rat were weighed.

[5] = Rate of migration into urine; conditions: rat, in vivo, po; 50 mg/kg perorally, S.D. rats, urine excreted for 24 hrs; read-out: Rate of migration into urine, Average ± S.E.
Method: 50 mg/kg of a test compound was administered perorally to S.D. rats weighing around 200 g. The urease-inhibition capacity of urine excreted for 24 hrs. thereafter was measured. The rate of migration into urine of each test compound was determined by the method of Kobashi et al, Yakugaku Zasshi 93(12), 1564-1572 (1973) and J. Biochim. 83, 287-293 (1973).

[6] = molecular target: T1, urease produced by Proteus mirabilis; assay: Urease inhibition effects - Proteus mirabilis urease, cell free; type: biochemical; conditions: read-out: 50% Urease inhibition conc. I50
Method: as §1

T2 sequence (P07374 whole entry, looked up): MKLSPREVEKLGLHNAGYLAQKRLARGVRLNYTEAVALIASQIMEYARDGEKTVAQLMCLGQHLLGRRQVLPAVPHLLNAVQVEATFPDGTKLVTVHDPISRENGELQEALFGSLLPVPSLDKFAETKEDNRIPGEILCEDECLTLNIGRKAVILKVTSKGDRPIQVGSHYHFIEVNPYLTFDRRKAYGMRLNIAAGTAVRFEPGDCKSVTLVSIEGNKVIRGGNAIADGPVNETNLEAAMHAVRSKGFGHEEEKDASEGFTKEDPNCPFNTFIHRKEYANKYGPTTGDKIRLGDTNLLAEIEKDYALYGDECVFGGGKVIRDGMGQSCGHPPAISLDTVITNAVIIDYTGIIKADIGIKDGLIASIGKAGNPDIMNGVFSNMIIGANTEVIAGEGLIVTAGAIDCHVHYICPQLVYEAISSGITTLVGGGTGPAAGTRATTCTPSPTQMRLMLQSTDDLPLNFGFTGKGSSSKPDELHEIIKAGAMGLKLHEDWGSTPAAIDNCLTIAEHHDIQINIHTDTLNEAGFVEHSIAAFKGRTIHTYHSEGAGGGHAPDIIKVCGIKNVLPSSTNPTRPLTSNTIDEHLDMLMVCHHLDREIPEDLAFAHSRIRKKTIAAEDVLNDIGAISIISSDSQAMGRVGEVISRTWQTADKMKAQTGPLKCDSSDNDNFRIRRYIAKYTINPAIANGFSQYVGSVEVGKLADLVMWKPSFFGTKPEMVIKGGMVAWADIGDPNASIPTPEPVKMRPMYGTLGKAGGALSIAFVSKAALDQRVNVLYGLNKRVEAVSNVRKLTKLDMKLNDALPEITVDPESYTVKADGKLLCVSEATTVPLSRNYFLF
T1 sequence (P17086 whole entry): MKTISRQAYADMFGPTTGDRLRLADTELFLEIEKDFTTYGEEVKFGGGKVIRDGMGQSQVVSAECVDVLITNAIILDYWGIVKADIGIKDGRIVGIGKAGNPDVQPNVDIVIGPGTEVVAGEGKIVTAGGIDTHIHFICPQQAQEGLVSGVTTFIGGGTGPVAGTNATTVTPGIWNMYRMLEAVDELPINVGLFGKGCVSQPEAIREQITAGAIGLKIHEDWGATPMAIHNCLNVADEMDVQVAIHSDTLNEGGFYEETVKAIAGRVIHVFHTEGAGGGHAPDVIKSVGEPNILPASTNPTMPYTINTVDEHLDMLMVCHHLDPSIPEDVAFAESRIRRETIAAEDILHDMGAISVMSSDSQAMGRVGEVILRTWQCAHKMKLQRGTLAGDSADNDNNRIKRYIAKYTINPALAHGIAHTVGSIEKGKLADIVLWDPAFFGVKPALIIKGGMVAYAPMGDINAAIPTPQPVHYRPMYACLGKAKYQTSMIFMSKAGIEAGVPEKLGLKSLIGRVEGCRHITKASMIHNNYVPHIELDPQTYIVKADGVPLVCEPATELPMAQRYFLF
T1 sequence (P17088 whole entry, further chain): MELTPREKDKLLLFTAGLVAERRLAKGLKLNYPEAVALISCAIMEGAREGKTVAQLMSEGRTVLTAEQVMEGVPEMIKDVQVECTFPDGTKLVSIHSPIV
T1 sequence (P17087 whole entry, further chain): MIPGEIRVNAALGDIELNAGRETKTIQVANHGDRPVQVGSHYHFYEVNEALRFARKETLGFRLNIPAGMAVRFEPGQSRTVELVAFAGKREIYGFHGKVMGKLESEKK

Row | SMILES | IC50 [1] [µM] | Acute toxicity, in words ([2]; S.D. rats) | LD50 ([2]; female S.D. rats (8 weeks old)) [mg/kg] | LD50 ([2]; male S.D. rats (8 weeks old)) [mg/kg] | IC50 [3] [µM] | Weight of calculi (Average ± S.E.) ([4]; 12.5 mg/kg per day) [mg] | Weight of calculi (Average ± S.E.) ([4]; 50 mg/kg per day) [mg] | dose excreted at 24 h [5] [%] | IC50 [6] [µM]
1 | CC(C)=CC(=O)NP(N)(N)=O [Compound A, N-(diaminophosphinyl)-3-methyl-2-butenamide] | 0.018 | only a very low toxitity | > 4240 | > 6000 | 0.63 | 10.7 ± 3.9 | 10.9 ± 2.8 | 29.6 ± 2.1 | 0.016
2 | CC(=CC(=O)NP(N)(N)=O)CCCC(C)C [Compound B, N-(diaminophosphinyl)-3,7-dimethyl-2-octenamide] | 0.015 | – | – | – | 5.2 | – | – | – | 0.016
3 | CC(C)CC(=O)NP(N)(N)=O [Compound C, N-(diaminophosphinyl)-3-methylbutanamide] | 0.068 | – | – | – | 1.6 | – | – | – | 0.061
4 | CC(C)CCCC(C)CC(=O)NP(N)(N)=O (stereo not shown) [Compound D, N-(diaminophosphinyl)-3,7-dimethyloctanamide] | 0.014 | – | – | – | 0.87 | – | – | – | –
5 | NP(N)(=O)NC(=O)c1ccccc1 [Control Compound, N-(diaminophosphinyl)benzamide, reference compound] | 0.018 | – | – | – | 0.6 | 22.5 ± 4.0 | – | 21 ± 2.7 | 0.013

— patent US4454126A, “Phosphoramide derivatives and medicines containing the same” (priority 1981, dated 1984)
